Columns and labels:
hM4 receptors = molecular target: T1, hM4 receptors (Homo sapiens, UniProt P08173); assay: Human M4 PAM PERK assay (CHO cells, TR-FRET, with EC20 acetylcholine); type: cell-based
T1 construct: expressed in transfected cells; host or cells: CHO cells
T1 sequence (P08173 1-479): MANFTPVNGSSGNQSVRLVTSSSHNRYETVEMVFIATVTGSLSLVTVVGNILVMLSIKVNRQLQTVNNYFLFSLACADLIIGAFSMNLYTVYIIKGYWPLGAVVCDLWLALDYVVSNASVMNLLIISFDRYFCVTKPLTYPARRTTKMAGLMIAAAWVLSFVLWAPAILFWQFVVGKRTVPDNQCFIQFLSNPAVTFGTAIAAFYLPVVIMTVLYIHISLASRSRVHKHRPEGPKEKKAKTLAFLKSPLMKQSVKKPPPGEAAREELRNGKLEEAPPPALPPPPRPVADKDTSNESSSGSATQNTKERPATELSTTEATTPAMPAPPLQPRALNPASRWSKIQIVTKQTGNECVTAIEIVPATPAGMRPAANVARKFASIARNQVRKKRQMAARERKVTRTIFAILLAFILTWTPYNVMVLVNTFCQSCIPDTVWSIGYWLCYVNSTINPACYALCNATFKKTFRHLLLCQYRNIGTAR
Description: (§1) Chinese hamster ovary (CHO) cells expressing either hM4 or rM4 receptors were frozen in assay ready vials (5×10^6 cells/vial) after bulking-up in culture. The day before an assay, vial(s) were thawed and cells seeded in 384 well white proxiplates at 1000/well for hM4 cells and at 2000/well for rM4 cells, in 10 μL of growth media (Hams/F12 with glutamax and 10% FCS) and incubated overnight at 37° C./5% CO2.
(§2) On the following morning, the growth media was removed by ‘flicking out’ over a bin, patting the inverted plate onto tissue, and then replacing with 10 μL of wash media (Hams/F12 with glutamax and 8 mM HEPES, NB: serum free). Then, the wash media was removed in the same way and replaced with 8 μL/well of the serum free media. Plates were then re-incubated for a further 4 hours at 37° C./5% CO2.
(§3) Compounds for testing were solubilized to 10 mM in DMSO and compound addition plates, consisting of ten-point concentration response curves (CRC) in duplicate points (10 μM top concentration, ½ log dilution series), were prepared by acoustic dispensing and the compound management group.
(§4) After the 4-hour incubation in serum free media, a 4 μL aliquot of the 3×compound solution containing an EC20 of acetylcholine (10 nM final concentration) was added to the cell plate using a 384 well plate to plate transfer. Then, the plate lid was replaced, and the cells incubated for 5 mins at 37° C./5% CO2. Following this final incubation, all cellular processes were stopped by the addition of 4 μL/well of lysis and blocking buffer and plates were incubated for 30 minutes at RT on an orbital shaker (gentle setting). Then, a final addition of 4 μL/well of antibody detection mix, containing both the Europium-Cryptate (donor) and d2 (acceptor) tagged detection components, was added followed by a further 2-hour incubation at RT, and then the plate was read using a TR-FRET (time resolved fluorescence resonance energy transfer) based protocol.

rM4 receptors = molecular target: T2, rM4 receptors (Rattus norvegicus, UniProt P08485); assay: Rat M4 PAM PERK assay (CHO cells, TR-FRET, with EC20 acetylcholine); type: cell-based
T2 construct: expressed in transfected cells; host or cells: CHO cells
T2 sequence (P08485 1-478): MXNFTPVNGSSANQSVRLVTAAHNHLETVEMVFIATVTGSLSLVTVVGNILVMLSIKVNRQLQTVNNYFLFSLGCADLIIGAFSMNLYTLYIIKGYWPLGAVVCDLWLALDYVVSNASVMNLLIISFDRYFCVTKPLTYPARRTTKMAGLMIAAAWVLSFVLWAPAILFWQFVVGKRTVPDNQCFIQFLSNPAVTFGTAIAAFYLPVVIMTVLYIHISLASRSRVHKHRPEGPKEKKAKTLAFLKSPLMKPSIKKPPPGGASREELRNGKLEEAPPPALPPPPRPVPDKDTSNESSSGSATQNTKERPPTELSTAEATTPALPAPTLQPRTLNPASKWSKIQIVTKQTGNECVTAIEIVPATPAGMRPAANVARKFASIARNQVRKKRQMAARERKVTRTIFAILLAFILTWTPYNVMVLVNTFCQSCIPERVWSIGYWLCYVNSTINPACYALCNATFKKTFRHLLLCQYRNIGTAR
Description: as §1, §2, §3, §4

| Structure (SMILES) | EC50 (hM4 receptors) [nM] | EC50 (rM4 receptors) [nM] |
| --- | --- | --- |
| Cc1c2c(n(C)c(=O)c1Cl)CN(C(=O)C(C)C1CN(c3ccnc(C(F)(F)F)c3)C1)C2 (single isomer, unassigned) [Compound I-83, 3-Chloro-1,4-dimethyl-6-(2-(1-(2-(trifluoromethyl)pyridin-4-yl)azetidin-3-yl)propanoyl)-1,5,6,7-tetrahydro-2H-pyrrolo[3,4-b]pyridin-2-one] | > 1000 | > 1000 |
| Cc1c2c(n(C)c(=O)c1C1CC1)CN(C(=O)CC1CN(c3ccnc(C(F)(F)F)c3)C1)C2 [Compound I-109, 3-Cyclopropyl-1,4-dimethyl-6-(2-(1-(2-(trifluoromethyl)pyridin-4-yl)azetidin-3-yl)acetyl)-1,5,6,7-tetrahydro-2H-pyrrolo[3,4-b]pyridin-2-one] | 50 to 200 | 200 to 1000 |
| Cc1c2c(n(C)c(=O)c1Cl)CN(C(=O)CC1CN(c3cnccn3)C1)C2 [Compound I-72] | < 50 | 50 to 200 |
| Cc1c2c(n(CC(F)(F)F)c(=O)c1Cl)CN(C(=O)CC1CN(c3cncnc3)C1)C2 [Compound I-96] | 50 to 200 | 200 to 1000 |
| Cc1cc(=O)n(C)c2c1CN(C(=O)CC1CN(c3ccc(C(F)(F)F)cc3)C1)C2 [Compound I-5] | < 50 | > 1000 |
| Cc1cc(=O)n(C)c2c1C(C)N(C(=O)CC1CN(c3ccnc(C(F)(F)F)c3)C1)C2 (racemic) [Compound I-113, (±)-1,4,5-Trimethyl-6-(2-(1-(2-(trifluoromethyl)pyridin-4-yl)azetidin-3-yl)acetyl)-1,5,6,7-tetrahydro-2H-pyrrolo[3,4-b]pyridin-2-one] | > 1000 | > 1000 |
| Cc1c2c(n(C)c(=O)c1F)CN(C(=O)CC1CN(c3cccc(C(F)(F)F)c3F)C1)C2 [Compound I-86] | 200 to 1000 | 200 to 1000 |
| Cc1cc(=O)n(C)c2c1CN(C(=O)CC1CN(c3cc(C4CC4)c(C#N)c(C(F)(F)F)c3)C1)C2 [Compound I-40, 2-Cyclopropyl-4-(3-(2-(1,4-dimethyl-2-oxo-1,2,5,7-tetrahydro-6H-pyrrolo[3,4-b]pyridin-6-yl)-2-oxoethyl)azetidin-1-yl)-6-(trifluoromethyl)benzonitrile] | 200 to 1000 | 200 to 1000 |
| Cc1c2c(n(CC(F)(F)F)c(=O)c1Cl)CN(C(=O)CC1CN(c3cccnc3)C1)C2 [Compound I-93, 3-Chloro-4-methyl-6-(2-(1-(pyridin-3-yl)azetidin-3-yl)acetyl)-1-(2,2,2-trifluoroethyl)-1,5,6,7-tetrahydro-2H-pyrrolo[3,4-b]pyridin-2-one] | 50 to 200 | 50 to 200 |
| Cc1c2c(n(C)c(=O)c1Cl)CN(C(=O)CC1CN(c3ccncn3)C1)C2 [Compound I-70] | < 50 | 200 to 1000 |
| Cc1cc(=O)n(CC2CC2)c2c1CN(C(=O)CC1CN(c3ccnc(C(F)(F)F)c3)C1)C2 [Compound I-101, 1-(Cyclopropylmethyl)-4-methyl-6-(2-(1-(2-(trifluoromethyl)pyridin-4-yl)azetidin-3-yl)acetyl)-1,5,6,7-tetrahydro-2H-pyrrolo[3,4-b]pyridin-2-one] | 200 to 1000 | 200 to 1000 |
| Cc1cc(=O)n(C)c2c1CN(C(=O)CC1CN(c3ccccn3)C1)C2 [Compound I-9] | < 50 | 200 to 1000 |
| Cc1c2c(n(C)c(=O)c1C)CN(C(=O)CC1CN(c3ccc(C4CC4)c(F)c3)C1C)C2 (stereo not shown) [Compound I-60, 6-(2-(1-(4-Cyclopropyl-3-fluorophenyl)-2-methylazetidin-3-yl)acetyl)-1,3,4-trimethyl-1,5,6,7-tetrahydro-2H-pyrrolo[3,4-b]pyridin-2-one] | < 50 | < 50 |
| Cc1cc(=O)n(C)c2c1CN(C(=O)CC1CN(c3ccnc(C(F)(F)F)c3)C1)C2 [Compound I-1, 1,4-Dimethyl-6-(2-(1-(2-(trifluoromethyl)pyridin-4-yl)azetidin-3-yl)acetyl)-1,5,6,7-tetrahydro-2H-pyrrolo[3,4-b]pyridin-2-one] | < 50 | 200 to 1000 |
| Cc1cc(=O)n(C)c2c1CN(C(=O)CC1CN(c3cnnc(C4CC4)c3)C1)C2 [Compound I-38, 6-(2-(1-(6-Cyclopropylpyridazin-4-yl)azetidin-3-yl)acetyl)-1,4-dimethyl-1,5,6,7-tetrahydro-2H-pyrrolo[3,4-b]pyridin-2-one] | 50 to 200 | 200 to 1000 |

Continued, values first:

| EC50 (hM4 receptors) [nM] | EC50 (rM4 receptors) [nM] | Structure (SMILES) |
| --- | --- | --- |
| < 50 | 200 to 1000 | Cc1c2c(n(C)c(=O)c1Cl)CN(C(=O)CC1CN(c3ccccc3)C1)C2 [Compound I-71] |
| 50 to 200 | > 1000 | Cc1cc(=O)n(C)c2c1CN(C(=O)CC1CN(c3ccc(S(C)(=O)=O)cc3)C1)C2 [Compound I-2, 1,4-Dimethyl-6-(2-(1-(4-(methylsulfonyl)phenyl)azetidin-3-yl)acetyl)-1,5,6,7-tetrahydro-2H-pyrrolo[3,4-b]pyridin-2-one] |
| < 50 | 200 to 1000 | COc1cncc(N2CC(CC(=O)N3Cc4c(C)cc(=O)n(C)c4C3)C2)c1 [Compound I-15] |
| < 50 | > 1000 | Cc1c2c(n(C)c(=O)c1Cl)CN(C(=O)CC1CN(c3ccnnc3)C1)C2 [Compound I-81, 3-Chloro-1,4-dimethyl-6-(2-(1-(pyridazin-4-yl)azetidin-3-yl)acetyl)-1,5,6,7-tetrahydro-2H-pyrrolo[3,4-b]pyridin-2-one] |
| < 50 | 50 to 200 | Cc1c2c(n(C)c(=O)c1Cl)CN(C(=O)CC1CN(c3cccnc3)C1)C2 [Compound I-67] |
| < 50 | 50 to 200 | Cc1c2c(n(C)c(=O)c1C)CN(C(=O)CC1CN(c3ccc(C4CC4)c(F)c3)C1)C2 [Compound I-53] |
| < 50 | 200 to 1000 | COc1c2c(n(C)c(=O)c1C)CN(C(=O)CC1CN(c3ccnc(C(F)(F)F)c3)C1)C2 [Compound I-97, 4-Methoxy-1,3-dimethyl-6-(2-(1-(2-(trifluoromethyl)pyridin-4-yl)azetidin-3-yl)acetyl)-1,5,6,7-tetrahydro-2H-pyrrolo[3,4-b]pyridin-2-one] |
| 50 to 200 | 50 to 200 | Cc1c2c(n(C)c(=O)c1C)CN(C(=O)CC1CN(c3ccc(OC(F)(F)F)cc3)C1)C2 [Compound I-52] |
| < 50 | > 1000 | COc1c2c(n(C)c(=O)c1C)CN(C(=O)CC1CN(c3ccncn3)C1)C2 [Compound I-98] |
| 50 to 200 | 50 to 200 | Cc1c2c(n(C)c(=O)c1C)CN(C(=O)CC1CN(c3ccc(F)c(C(F)(F)F)c3)C1)C2 [Compound I-49] |
| 50 to 200 | 200 to 1000 | COc1cccc(N2CC(CC(=O)N3Cc4c(C)c(C)c(=O)n(C)c4C3)C2)c1 [Compound I-47] |
| < 50 | 50 to 200 | Cc1c2c(n(C)c(=O)c1C)CN(C(=O)CC1CN(c3ccc(CC(C)(C)O)c(F)c3)C1)C2 [Compound I-57] |
| 50 to 200 | > 1000 | Cc1c2c(n(C)c(=O)c1C(F)(F)F)CN(C(=O)CC1CN(c3cccnc3)C1)C2 [Compound I-108, 1,4-Dimethyl-6-(2-(1-(pyridin-3-yl)azetidin-3-yl)acetyl)-3-(trifluoromethyl)-1,5,6,7-tetrahydro-2H-pyrrolo[3,4-b]pyridin-2-one] |
| < 50 | 50 to 200 | Cc1c2c(n(C)c(=O)c1F)CN(C(=O)CC1CN(c3ccnc(C(F)(F)F)c3)C1)C2 [Compound I-84, 3-Fluoro-1,4-dimethyl-6-(2-(1-(2-(trifluoromethyl)pyridin-4-yl)azetidin-3-yl)acetyl)-1,5,6,7-tetrahydro-2H-pyrrolo[3,4-b]pyridin-2-one] |
